Here are results for four molecules from US20220241259A1, “COMPOSITIONS AND METHODS USING TRIGONELLINE AND VITAMINS FOR PREVENTING OR TREATING CONDITIONS OR DISORDERS IN SKELETAL MUSCLE” (SOCIETE DES PRODUITS NESTLE S.A., priority 2019, published 2022).

For assay [1], the system named is Human Skeletal Muscle Myotubes (HSMM). As to the kind of experiment: Colorimetric NAD+ quantification in differentiated human primary myoblasts. Conditions: 16 h, different doses, compared to the control (FIG. 4). Type of assay: cell-based. How it is done: After one day, the differentiation is induced by a medium change for 4 days. Cells were treated with synthetic trigonelline monohydrate (FIG. 4A) or with Fenugreek seed extract enriched in trigonelline containing 40.45% trigonelline (FIG. 4B) for 16 h at difference doses. NAD+ was measured using colorimetric NAD+ quantification assay (Biovision NAD+/NADH Quantitation Colorimetric Kit #k337-100).

In a further assay the test system is C57BL/6JRj male mice. In words: Liver NAD+ in mice after oral gavage. The class given is in vivo. Conditions: equimolar of 300 mg/kg trigonelline, 120 minutes, compared to the control (FIG. 5). How it is done:
10 weeks C57BL/6JRj male mice received trigonelline (sigma #T5509) or fenugreek seed extract enriched in trigonelline (40.45% trigonelline) by oral gavage (equimolar of 300 mg/kg trigonelline, n=8/group). After 120 minutes treatment, the liver was harvested and flash frozen in liquid nitrogen. NAD+ was measured in liver using an enzymatic method adapted from Dall, M., et al., Mol Cell Endocrinol, 2018. 473: p. 245-256.

Assay [2] has as its system Human Skeletal Muscle Myotubes (HSMM). Conditions: 6 h. As for the experimental part:
Human primary myoblasts from two different donors were seeded in 6 well plates at a density of 200′000 cells per well in skeletal muscle growth medium (SKM-M, AMSbio). After one day, the differentiation was induced by a medium change for 4 days using differentiation culture medium (Gibco No. 31330-028). Cells were treated with isotopically labelled trigonelline (^13C carbonyl; 3^2H on methyl) for 6 h.
Cell extracts were separated on a Vanquish UHPLC+ focused LC system (Thermo Scientific) with a hydrophilic liquid chromatography (HILIC) iHILIC-Fusion(P) column (Hilicon) carrying the dimensions 150×2.1 mm, 5 μm and a guard column (iHILIC-fusion(P), Hilicon) in front. The separation of metabolites was achieved by applying a linear solvent gradient in normal phase at 0.25 mL/min flow rate and 35° C. of temperature. As mobile phase, solvent A was water with 10 mM ammonium acetate and 0.04% (v/v) ammonium hydroxide, pH ˜9.3, and solvent B was acetonitrile.
The eluting metabolites were analyzed with an Orbitrap Fusion Lumos mass spectrometer (Thermo Scientific) with a heated electrospray ionization (H-ESI) source in positive and negative mode at a resolution of 60,000 at m/z of 200. Instrument control and data analysis were conducted using Xcalibur (Thermo Scientific).

Assay [3] concerns C. elegans. Conditions: 1 mM, chronic exposure from Day 1 adulthood (FIG. 7A). As for the experimental part: Worm lifespan tests were performed using about 100 animals per condition and scored manually every other day. Trigonelline treatment and experimental measurements were started at Day 1 of wild type N2 worm adulthood, in a regimen of chronic exposure till experiments termination.

For assay [4], the system named is C. elegans. Conditions: 1 mM. How it is done:
C. elegans mobility test was performed using the Movement Tracker software (Mouchiroud, L. et al. Curr Protoc Neurosci 77, 8.37.1-8.37.21 (2016)). The experiments were repeated at least twice. Trigonelline treatment and experimental measurements were started at Day 1 of wild type N2 worm adulthood, in a regimen of chronic exposure till experiments termination.

For assay [5], the system named is C. elegans. Conditions: 1 mM, day 8 and day 11 old worms (FIG. 7D). The text has this:
45 to 60 worms per condition were manually scored for mobility after poking. Worms that were unable to respond to any repeated stimulation were scored as dead. […] Trigonelline treatment and experimental measurements were started at Day 1 of wild type N2 worm adulthood, in a regimen of chronic exposure til experiments termination.

Assay [6] concerns RW1596 (myo-3p::GFP) worms. Conditions: 1 mM trigonelline chloride, 11 day old worms vs age matched control. As for the experimental part:
RW1596 (myo-3p::GFP) worms were collected at Day 1 (young adults) and at Day 11 (aged animals) for muscle integrity assessment. Worms were immobilized with tetramisole and analyzed by confocal microscopy, to assess the muscle fibers morphology shown by GFP fluorescence imaging. Trigonelline treatment with 1 mM trigonelline chloride and experimental measurements were started at Day 1 of wild type N2 worm adulthood, in a regimen of chronic exposure till experiments termination.

Another assay has as its system wild type N2 worms. Conditions: 1 mM trigonelline chloride, day 8 old worms (FIG. 8). As for the experimental part: Absolute quantification of the mtDNA copy number in wild type N2 worms was performed by real-time PCR. Relative values for nduo-1, and act-1 were compared within each sample to generate a ratio representing the relative level of mitochondrial DNA per nuclear genome. The average of at least two technical repeats was used for each biological data point. Each experiment was performed on at least ten independent biological samples (individual worms). Trigonelline treatment with 1 mM trigonelline chloride and experimental measurements were started at Day 1 of wild type N2 worm adulthood, in a regimen of chronic exposure till experiments termination.

SMILES strings stand for the structures.

Take `C[n+]1cccc(C(=O)O)c1.[OH-]` [chemically synthesized trigonelline]: the “NAD+ content” value in assay [1] is recorded as “significant increase”. In addition, in the assay with C57BL/6JRj male mice, the “NAD+ content in the liver” value is “significant increase”.

For the molecule `[2H]C([2H])([2H])[n+]1cccc([13C](=O)[O-])c1` [labelled trigonelline], the “relative abundance of labelled NAD+ (M+ 1)” value in assay [2] (labelled trigonelline 500 μm, vs naturally occurring NAD+ control (FIG. 2B)) is reported as “increase in relative abundance of labelled NAD+ (M+ 1)”.

In the assay on C. elegans [3], `C[n+]1cccc(C(=O)O)c1` [trigonelline chloride] displayed a lifespan increase of 21%. For the same molecule, the “distance travelled during spontaneous mobility assay” value with C. elegans [4] (advanced aging phase, compared to control (FIG. 7C)) was “significantly increased”. Besides, in the assay on C. elegans [4] (from day 1 adulthood, compared to control (FIG. 7B)), the “mean speed during spontaneous mobility assay” value is “increased the mean speed”. Besides, the “stimulated mobility score (percentage of worms responsive to a physical stimulus)” value in the assay on C. elegans [5] is listed as “more responsive to a physical stimulus than the control”.

Consider `C[n+]1cccc(C(=O)[O-])c1` [trigonelline, 1-methylpyridin-1-ium-3-carboxylate], for which, in assay [2] (500 μm, HSMM from 2 donors, LC-MS, relative to control (FIG. 2A)), the “NAD+ relative concentration” value is given as “enhancement of NAD+”. In addition, the “myofibrillar structure (GFP-tagged myosin)” value in assay [6] is reported as “improved more organized myofibrillar structure”. The “mitochondrial (nduo-1) relative to nuclear (act-1) DNA ratio” value with wild type N2 worms was “higher than in the control group”.
